14 molecules from patent US9822147B2, “Methods of treating ophthalmic diseases using NPR-B agonists” (priority 2009, dated 2017) can be followed below.

Structures are written as SMILES. pEC50: −log10 of the molar value. Numbered stars: 1 amine (or outer) side, 2 acyl side, 3 side chain; on linkers, the order of the positions; unused ones are H or OH. Square brackets hold non-standard residues; d marks the D form. Peptide text beside a SMILES is read from it. * marks the point of attachment. X2 = O=C([C@H]1CCCN([*:1])C1)[*:2]; Hyp = O=C(O)[C@@H]1C[C@@H](O)CN1; dNle = CCCC[C@@H](N)C(=O)O; Octanoyl = CCCCCCCC(=O)*

The experiment concerns the target T1, NPR-B (Homo sapiens, UniProt P20594).
T1 construct: a functional assay using endogenously NPR-B expressing GTM-3 cells; endogenous in cells; host or cells: GTM-3 (human glaucoma trabecular meshwork cells)
T1 sequence (P20594 23-1047): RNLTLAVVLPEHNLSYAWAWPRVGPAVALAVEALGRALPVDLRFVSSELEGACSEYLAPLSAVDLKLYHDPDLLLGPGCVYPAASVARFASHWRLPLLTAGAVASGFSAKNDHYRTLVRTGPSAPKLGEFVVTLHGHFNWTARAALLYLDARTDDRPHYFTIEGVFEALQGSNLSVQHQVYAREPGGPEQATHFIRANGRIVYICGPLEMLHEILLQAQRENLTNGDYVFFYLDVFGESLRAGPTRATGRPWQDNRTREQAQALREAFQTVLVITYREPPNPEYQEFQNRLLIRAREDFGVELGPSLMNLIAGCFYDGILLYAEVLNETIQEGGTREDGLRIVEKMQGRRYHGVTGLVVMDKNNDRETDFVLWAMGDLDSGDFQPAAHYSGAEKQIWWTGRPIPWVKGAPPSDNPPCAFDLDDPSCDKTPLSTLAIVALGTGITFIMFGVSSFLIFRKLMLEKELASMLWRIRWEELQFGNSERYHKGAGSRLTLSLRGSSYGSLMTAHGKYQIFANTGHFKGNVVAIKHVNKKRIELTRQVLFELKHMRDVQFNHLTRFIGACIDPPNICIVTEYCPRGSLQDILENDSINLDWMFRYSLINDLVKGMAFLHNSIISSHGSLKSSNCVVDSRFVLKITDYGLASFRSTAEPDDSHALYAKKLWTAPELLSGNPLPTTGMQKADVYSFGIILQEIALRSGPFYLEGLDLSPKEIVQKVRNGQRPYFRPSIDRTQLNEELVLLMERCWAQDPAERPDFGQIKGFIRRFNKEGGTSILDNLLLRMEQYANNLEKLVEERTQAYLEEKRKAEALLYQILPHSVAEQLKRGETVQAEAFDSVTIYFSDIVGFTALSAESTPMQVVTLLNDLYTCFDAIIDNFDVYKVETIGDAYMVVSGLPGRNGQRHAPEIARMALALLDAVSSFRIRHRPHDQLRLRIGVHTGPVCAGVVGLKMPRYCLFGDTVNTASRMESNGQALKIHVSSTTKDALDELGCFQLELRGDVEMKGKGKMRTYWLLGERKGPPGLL
Nature of the experiment: NPR-B induced production of cyclic GMP in human glaucoma trabecular meshwork cells (GTM-3). To be noted: group by EC50 and Emax (CNP = 100%); Table 4; read-out: Activity (group), NPR-B activation assayed with GTM-3 cells. The class given is cell-based.

Turning to `CCCCCCCC(=O)N1CCC[C@H](C(=O)N[C@@H](Cc2ccccc2)C(=O)N[C@H](CCCC)C(=O)N[C@@H](CC(C)C)C(=O)N2C[C@H](O)C[C@H]2C(=O)N[C@@H](CC(C)C)C(=O)N[C@@H](CC(=O)O)C(=O)N[C@@H](CCCNC(=N)N)C(=O)N[C@H](C(N)=O)[C@@H](C)CC)C1` [JAL-1024, Occ-Sni-Phe-nle-Leu-Hyp-Leu-Asp-Arg-Ile-NH2] (Octanoyl-[X2]F[dNle]L[Hyp]LDRI-NH2), the pEC50 is over 6.00. The same measure for `CCCCCCCC(=O)N[C@H](C)C(=O)N[C@@H](Cc1ccccc1)C(=O)N[C@H](CC(C)C)C(=O)N[C@@H](CC(C)C)C(=O)N1CCC[C@H]1C(=O)N(C)[C@@H](CC(C)C)C(=O)N[C@@H](CC(=O)O)C(=O)N[C@@H](CCCNC(=N)N)C(=O)N[C@H](C(N)=O)[C@@H](C)CC` [JAL-1039, Occ-ala-Phe-leu-Leu-Pro-Nml-Asp-Arg-Ile-NH2] (HELM PEPTIDE1{[CCCCCCCC(=O)[*:2]].[dA].F.[dL].L.P.[meL].D.R.I.[am]}$$$$V2.0): over 6.00; for `CCCCCCCC(=O)N1CCC[C@H](C(=O)N[C@@H](Cc2ccccc2)C(=O)N[C@H](CC(C)C)C(=O)N[C@@H](CC(C)C)C(=O)N2CCC[C@H]2C(=O)N(C)[C@@H](CC(C)C)C(=O)N[C@@H](CC(=O)O)C(=O)N[C@@H](CCCNC(=N)N)C(=O)N[C@H](C(N)=O)[C@@H](C)CC)C1` [JAL-1040, Occ-Sni-Phe-leu-Leu-Pro-Nml-Asp-Arg-Ile-NH2] (HELM PEPTIDE1{[CCCCCCCC(=O)[*:2]].[O=C([C@H]1CCCN([*:1])C1)[*:2]].F.[dL].L.P.[meL].D.R.I.[am]}$$$$V2.0): over 6.00; for `CCCCCCCC(=O)N[C@H](C)C(=O)N[C@@H](Cc1ccc(Cl)cc1)C(=O)N[C@H](CC(C)C)C(=O)N[C@@H](CC(C)C)C(=O)N1C[C@H](O)C[C@H]1C(=O)N(C)[C@@H](CC(C)C)C(=O)N[C@@H](CC(=O)O)C(=O)N[C@@H](CCCNC(=N)N)C(=O)N[C@H](C(N)=O)[C@@H](C)CC` [JAL-1043, Occ-ala-Pcf-leu-Leu-Hyp-Nml-Asp-Arg-Ile-NH2] (HELM PEPTIDE1{[CCCCCCCC(=O)[*:2]].[dA].[O=C([C@H](Cc1ccc(Cl)cc1)N[*:1])[*:2]].[dL].L.[Hyp].[meL].D.R.I.[am]}$$$$V2.0): over 6.00. `CCCCCCCC(=O)N[C@H](C)C(=O)N[C@@H](Cc1ccccc1)C(=O)N[C@H](CCCC)C(=O)N[C@@H](CC(C)C)C(=O)N1C[C@H](O)C[C@H]1C(=O)N(C)[C@@H](CC(C)C)C(=O)N[C@@H](CC(=O)O)C(=O)N[C@@H](CCCNC(=N)N)C(=O)N[C@H](C(N)=O)[C@@H](C)CC` [JAL-1044, Occ-ala-Phe-nle-Leu-Hyp-Nml-Asp-Arg-Ile-NH2] (HELM PEPTIDE1{[CCCCCCCC(=O)[*:2]].[dA].F.[CCCC[C@@H](N[*:1])C(=O)[*:2]].L.[Hyp].[meL].D.R.I.[am]}$$$$V2.0): the pEC50 was over 6.00. As for `CCCCCCCC(=O)N[C@H](C)C(=O)N[C@@H](Cc1ccc(Cl)cc1)C(=O)N[C@H](CC(C)C)C(=O)N[C@@H](CC(C)C)C(=O)N1C[C@H](O)C[C@H]1C(=O)N[C@@H](CC(C)C)C(=O)N[C@@H](CC(=O)O)C(=O)N[C@@H](CCCNC(=N)N)C(=O)N[C@H](C(N)=O)[C@@H](C)CC` [JAL-1050, Occ-ala-Pcf-leu-Leu-Hyp-Leu-Asp-Arg-Ile-NH2] (HELM PEPTIDE1{[CCCCCCCC(=O)[*:2]].[dA].[O=C([C@H](Cc1ccc(Cl)cc1)N[*:1])[*:2]].[dL].L.[Hyp].L.D.R.I.[am]}$$$$V2.0), the pEC50 was over 6.00. Next, `CCCCCCCC(=O)N[C@H](C)C(=O)N(C)[C@@H](Cc1ccccc1)C(=O)N[C@H](CC(C)C)C(=O)N[C@@H](CC(C)C)C(=O)N1C[C@H](O)C[C@H]1C(=O)N[C@@H](CC(C)C)C(=O)N[C@@H](CC(=O)O)C(=O)N[C@@H](CCCNC(=N)N)C(=O)N[C@H](C(N)=O)[C@@H](C)CC` [JAL-1052, Occ-ala-Nmf-leu-Leu-Hyp-Leu-Asp-Arg-Ile-NH2] (HELM PEPTIDE1{[CCCCCCCC(=O)[*:2]].[dA].[meF].[dL].L.[Hyp].L.D.R.I.[am]}$$$$V2.0): over 6.00; `CCCCCCCC(=O)N1CCC[C@@H]1C(=O)N[C@@H](Cc1ccccc1)C(=O)N[C@H](CC(C)C)C(=O)N[C@@H](CC(C)C)C(=O)N1C[C@H](O)C[C@H]1C(=O)N[C@@H](CC(C)C)C(=O)N[C@@H](CC(=O)O)C(=O)N[C@@H](CCCNC(=N)N)C(=O)N[C@H](C(N)=O)[C@@H](C)CC` [JAL-1053, Occ-pro-Phe-leu-Leu-Hyp-Leu-Asp-Arg-Ile-NH2] (HELM PEPTIDE1{[CCCCCCCC(=O)[*:2]].[dP].F.[dL].L.[Hyp].L.D.R.I.[am]}$$$$V2.0): over 6.00; `CCCCCCCC(=O)N1CCCC[C@@H]1C(=O)N[C@@H](Cc1ccccc1)C(=O)N[C@H](CC(C)C)C(=O)N[C@@H](CC(C)C)C(=O)N1C[C@H](O)C[C@H]1C(=O)N[C@@H](CC(C)C)C(=O)N[C@@H](CC(=O)O)C(=O)N[C@@H](CCCNC(=N)N)C(=O)N[C@H](C(N)=O)[C@@H](C)CC` [JAL-1054, Occ-pip-Phe-leu-Leu-Hyp-Leu-Asp-Arg-Ile-NH2] (HELM PEPTIDE1{[CCCCCCCC(=O)[*:2]].[O=C([C@H]1CCCCN1[*:1])[*:2]].F.[dL].L.[Hyp].L.D.R.I.[am]}$$$$V2.0): over 6.00. The same measure for `CCCCCCCC(=O)N[C@H](C)C(=O)N[C@@H](Cc1ccccc1)C(=O)N[C@H](CCCN)C(=O)N[C@@H](CC(C)C)C(=O)N1C[C@H](O)C[C@H]1C(=O)N(C)[C@@H](CC(C)C)C(=O)N[C@@H](CC(=O)O)C(=O)N[C@@H](CCCNC(=N)N)C(=O)N[C@H](C(N)=O)[C@@H](C)CC` [JAL-1061, Occ-ala-Phe-orn-Leu-Hyp-Nml-Asp-Arg-Ile-NH2] (HELM PEPTIDE1{[CCCCCCCC(=O)[*:2]].[dA].F.[NCCC[C@@H](N[*:1])C(=O)[*:2]].L.[Hyp].[meL].D.R.I.[am]}$$$$V2.0): over 6.00; for `CCCCCCCC(=O)N1CCCC[C@@H]1C(=O)N(C)[C@@H](Cc1ccccc1)C(=O)N[C@H](CCCNC(=N)N)C(=O)N[C@@H](CC(C)C)C(=O)N1CCC[C@H]1C(=O)N(C)[C@@H](CC(C)C)C(=O)N[C@@H](CC(=O)O)C(=O)N[C@@H](CCCNC(=N)N)C(=O)N[C@H](C(N)=O)[C@@H](C)CC` [JAL-1077, Occ-pip-Nmf-arg-Leu-Pro-Nml-Asp-Arg-Ile-NH2] (HELM PEPTIDE1{[CCCCCCCC(=O)[*:2]].[O=C([C@H]1CCCCN1[*:1])[*:2]].[meF].[dR].L.P.[meL].D.R.I.[am]}$$$$V2.0): over 6.00. Next, `CCCCCCCC(=O)N1CCCC[C@@H]1C(=O)N[C@@H](Cc1ccccc1)C(=O)N[C@H](CCCNC(=N)N)C(=O)N[C@@H](CC(C)C)C(=O)N1CCC[C@H]1C(=O)N(C)[C@@H](CC(C)C)C(=O)N[C@@H](CC(=O)O)C(=O)N[C@@H](CCCNC(=N)N)C(=O)N[C@H](C(N)=O)[C@@H](C)CC` [JAL-1078, Occ-pip-Phe-arg-Leu-Pro-Nml-Asp-Arg-Ile-NH2] (HELM PEPTIDE1{[CCCCCCCC(=O)[*:2]].[O=C([C@H]1CCCCN1[*:1])[*:2]].F.[dR].L.P.[meL].D.R.I.[am]}$$$$V2.0): over 6.00; `CCCCCCCC(=O)N1CCCC[C@@H]1C(=O)N[C@@H](Cc1ccccc1)C(=O)N[C@H](CCCNC(=N)N)C(=O)N[C@@H](CC(C)C)C(=O)N1C[C@H](O)C[C@H]1C(=O)N(C)[C@@H](CC(C)C)C(=O)N[C@@H](CC(=O)O)C(=O)N[C@@H](CCCNC(=N)N)C(=O)N[C@H](C(N)=O)[C@@H](C)CC` [JAL-1087, Occ-pip-Phe-arg-Leu-Hyp-Nml-Asp-Arg-Ile-NH2] (HELM PEPTIDE1{[CCCCCCCC(=O)[*:2]].[O=C([C@H]1CCCCN1[*:1])[*:2]].F.[dR].L.[Hyp].[meL].D.R.I.[am]}$$$$V2.0): over 6.00. As to `CCCCCCCC(=O)N[C@H](C)C(=O)N[C@@H](Cc1ccc(Br)cc1)C(=O)N[C@H](CCCNC(=N)N)C(=O)N[C@@H](CC(C)C)C(=O)N1C[C@H](O)C[C@H]1C(=O)N[C@@H](CC(C)C)C(=O)N[C@@H](CC(=O)O)C(=O)N[C@@H](CCCNC(=N)N)C(=O)N[C@H](C(N)=O)[C@@H](C)CC` [JAL-1116, Occ-ala-Pbf-arg-Leu-Hyp-Leu-Asp-Arg-Ile-NH2] (HELM PEPTIDE1{[CCCCCCCC(=O)[*:2]].[dA].[O=C([C@H](Cc1ccc(Br)cc1)N[*:1])[*:2]].[dR].L.[Hyp].L.D.R.I.[am]}$$$$V2.0), the pEC50 was over 6.00.
